Consider 24 molecules from patent US20230303569A1, “HETEROCYCLIC COMPOUNDS AS THERAPEUTIC AGENTS” (Arisan Therapeutics Inc., priority 2021, published 2023).

Molecules are shown by their SMILES. Read-outs that look alike come from different tables or passages of the source.

The target in the assay is T1, human Nav1.6 (Homo sapiens, UniProt Q9UQD0).
T1 construct: host or cells: HEK293
Briefly: Two pulse assay protocol, Nav1.6. In kind it is cell-based. The settings on record: peak current. As for the experimental part: In vitro Na+ Current Inhibition Assays were performed by Eurofins Discovery (St Charles, MO). All compound functional activity determinations were determined through electrophysiological analyses of Na+ currents in HEK293 cells expressing a stably transfected Na+ channel (human Nav1.1, 1.2, 1.3, 1.5, 1.6, 1.7, or 1.8). After harvesting with Accutase cells are maintained in serum free medium at room temperature prior to electrophysiological recording utilizing the QPatch HT automated whole-cell patch-clamp platform (Sophion Bioscience, Woburn MA). Stock solution aliquots of the test compound are prepared in DMSO at 300× the final assay concentrations, and stored at −20° C. until the day of assay. On the day of the assay, an aliquot of the stock solution is thawed and diluted into external solution (137 mM NaCl, 4 mM KCl, 1 mM MgCl2, 1.8 mM CaCl2, 10 mM HEPES, 10 mM Glucose (pH 7.3, titrated with 10M NaOH) to make final test concentrations. A final concentration of 0.33% DMSO is maintained for each concentration of the assay compounds. Internal solution for recordings of Na+ consist consists of 100 mM CsF, 45 mM CsCl, 5 mM NaCl, 10 mM HEPES, 5 mM EGTA (pH 7.3, titrated with 1M CsOH).
Two pulse assay protocol for human Nav1.1, 1.2, 1.3, 1.5, 1.6, 1.7, and 1.8 channels. Mammalian cultured cells expressing the indicated human Nav1.1, 1.2, 1.3, 1.5, 1.6, 1.7 or 1.8 channels were assayed using the The QPatch HT (Sophion Bioscience, Woburn MA) automated system with an intracellular solution (mM) of 100 CsF, 45 CsCl, 5 NaCl, 10 HEPES, 5 EGTA (pH 7.3, titrated with 1M CsOH) and extracellular solution (mM) of 137 NaCl, 4 KCl, 1 MgCl2, 1.8 CaCl2, 10 HEPES, 10 Glucose (pH 7.3, titrated with 10M NaOH). Onset and steady state block of the sodium channel was measured using a pulse pattern, repeated every 20 seconds (s) from a holding potential of −120 mV for 100 ms, and then pulsed to 0 mV for 500 ms to inactivate the Na channels and facilitate inactivated state-dependent binding of the test compounds. The cell membranes were then stepped back to −120 mV for 10 ms to recover from inactivation into resting or closed state (channels with test compound bound to them will not recover from inactivation and will not open) before stepping to 0 mV for 50 ms (pulse 2) to measure Na channels that are available to open. Peak current was measured during the step to 0 mV at pulse 1 and 2 to measure tonic and state-dependent inhibition. Compound activities were assessed by dividing post current amplitude (at the end of each five (5) minute compound application) by the vehicle control amplitude and the mean calculated for each compound concentration. Tetracaine was used as a positive control and was tested concurrently with the test compounds. Current amplitudes in excess of 200 pA at the control stage were analyzed. The amplitude of the current was calculated by measuring the difference between the peak inward current on stepping to 0 mV (i.e. peak of the current) and remaining current at the end of the step. The current was assessed in vehicle control conditions and then at the end of each five (5) minute compound application.

Where [1] appears, read: pulse 1 (tonic), read-out: percent inhibition hNav1.6, Pulse 1 (5 uM).
Where [2] appears, read: pulse 2 (state-dependent), read-out: percent inhibition hNav1.6, Pulse 2 (5 uM).

T1 sequence (Q9UQD0 whole entry): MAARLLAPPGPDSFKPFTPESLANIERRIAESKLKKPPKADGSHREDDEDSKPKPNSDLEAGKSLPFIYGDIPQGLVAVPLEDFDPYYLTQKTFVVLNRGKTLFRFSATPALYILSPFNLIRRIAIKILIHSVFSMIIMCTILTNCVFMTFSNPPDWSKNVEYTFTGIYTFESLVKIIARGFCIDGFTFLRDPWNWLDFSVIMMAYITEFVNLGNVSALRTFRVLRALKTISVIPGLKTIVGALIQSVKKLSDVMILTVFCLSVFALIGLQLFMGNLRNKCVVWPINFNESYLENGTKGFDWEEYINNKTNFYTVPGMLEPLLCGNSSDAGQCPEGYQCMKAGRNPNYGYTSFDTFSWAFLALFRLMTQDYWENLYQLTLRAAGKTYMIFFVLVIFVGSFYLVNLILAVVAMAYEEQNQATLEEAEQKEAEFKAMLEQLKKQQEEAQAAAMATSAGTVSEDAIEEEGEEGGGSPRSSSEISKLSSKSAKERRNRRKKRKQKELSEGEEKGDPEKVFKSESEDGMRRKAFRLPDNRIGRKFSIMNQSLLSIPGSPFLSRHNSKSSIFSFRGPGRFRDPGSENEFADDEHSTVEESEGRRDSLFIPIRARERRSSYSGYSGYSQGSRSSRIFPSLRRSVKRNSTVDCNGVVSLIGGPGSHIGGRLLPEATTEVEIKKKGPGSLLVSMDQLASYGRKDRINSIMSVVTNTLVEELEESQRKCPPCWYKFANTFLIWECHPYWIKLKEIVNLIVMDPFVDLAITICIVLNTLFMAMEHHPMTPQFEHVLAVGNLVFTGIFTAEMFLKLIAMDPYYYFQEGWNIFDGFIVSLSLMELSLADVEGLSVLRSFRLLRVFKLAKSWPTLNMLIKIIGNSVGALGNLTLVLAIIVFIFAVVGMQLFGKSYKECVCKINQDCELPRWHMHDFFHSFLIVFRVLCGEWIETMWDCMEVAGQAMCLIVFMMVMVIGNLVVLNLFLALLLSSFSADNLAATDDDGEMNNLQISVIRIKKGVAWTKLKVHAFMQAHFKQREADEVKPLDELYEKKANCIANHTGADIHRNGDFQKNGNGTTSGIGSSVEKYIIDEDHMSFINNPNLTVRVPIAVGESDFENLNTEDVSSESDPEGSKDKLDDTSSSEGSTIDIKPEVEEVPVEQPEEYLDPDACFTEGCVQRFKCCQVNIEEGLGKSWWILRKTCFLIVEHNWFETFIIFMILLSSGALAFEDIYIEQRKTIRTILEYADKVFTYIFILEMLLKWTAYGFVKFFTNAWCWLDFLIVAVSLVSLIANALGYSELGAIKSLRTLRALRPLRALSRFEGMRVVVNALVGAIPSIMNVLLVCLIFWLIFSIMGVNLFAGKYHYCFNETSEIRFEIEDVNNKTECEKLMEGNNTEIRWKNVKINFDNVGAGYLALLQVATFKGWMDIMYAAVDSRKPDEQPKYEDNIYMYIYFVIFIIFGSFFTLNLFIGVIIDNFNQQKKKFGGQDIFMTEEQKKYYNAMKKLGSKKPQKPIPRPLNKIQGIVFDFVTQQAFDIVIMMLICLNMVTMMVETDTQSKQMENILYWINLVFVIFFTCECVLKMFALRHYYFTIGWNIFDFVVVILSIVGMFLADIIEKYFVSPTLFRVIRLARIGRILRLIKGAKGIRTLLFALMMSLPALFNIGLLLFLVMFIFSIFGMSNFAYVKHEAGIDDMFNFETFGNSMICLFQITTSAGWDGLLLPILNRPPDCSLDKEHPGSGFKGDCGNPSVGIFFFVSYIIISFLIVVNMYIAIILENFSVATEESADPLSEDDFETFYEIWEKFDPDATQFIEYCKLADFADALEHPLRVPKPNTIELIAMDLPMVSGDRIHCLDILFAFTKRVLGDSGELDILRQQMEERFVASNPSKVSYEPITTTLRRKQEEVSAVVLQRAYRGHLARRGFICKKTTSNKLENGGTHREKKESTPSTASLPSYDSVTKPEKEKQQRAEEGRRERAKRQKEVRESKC

Broadly, the inhibition is the drop in the measured response relative to a control, in per cent. Consider `CC(C)Oc1ccc(-c2ccc3ncc(-c4ccc(OC(C)C)cc4)n3c2)cc1` [Example C2, 3,6-bis[4-(propan-2-yloxy)phenyl]imidazo[1,2-a]pyridine], for which the inhibition at 5 µM reads like this: under setting [1], below 50%; under setting [2], above 90%.

On to `Cc1cc(OC(C)C)ccc1-c1ccc2ncc(-c3ccc(OC(C)C)cc3)n2c1` [Example C18, 6-[2-methyl-4-(propan-2-yloxy)phenyl]-3-[4-(propan-2-yloxy)phenyl]imidazo[1,2-a]pyridine], for which the inhibition at 5 µM was below 50% under setting [1] and 50 to 90% under setting [2].

As for `CC(C)Oc1ccc(-c2cnc3ccc(-c4ccc(OC(C)(C)C)cc4)cn23)cc1` [Example C21, 6-[4-(tert-butoxy)phenyl]-3-[4-(propan-2-yloxy)phenyl]imidazo[1,2-a]pyridine], the inhibition at 5 µM under setting [1] was below 50% and the inhibition at 5 µM under setting [2] was above 90%.

Take `CC(C)Oc1ccc(-c2cnc3ccc(-c4ccc(OC(C)C)cc4F)cn23)cc1` [Example C23, 6-[2-fluoro-4-(propan-2-yloxy)phenyl]-3-[4-(propan-2-yloxy)phenyl]imidazo[1,2-a]pyridine]: the inhibition at 5 µM runs as follows: under setting [1], below 50%; under setting [2], below 50%.

Turning to `Cc1cc2ncc(-c3ccc(OC(C)C)cc3)n2cc1-c1ccc(OC(C)C)cc1` [Example C48, 7-methyl-3,6-bis[4-(propan-2-yloxy)phenyl]imidazo[1,2-a]pyridine], the inhibition at 5 µM runs as follows: under setting [1], below 50%; under setting [2], 50 to 90%.

For the molecule `Cc1cc(-c2ccc(OC(C)C)cc2)cn2c(-c3ccc(OC(C)C)cc3)cnc12` [Example C50, 8-methyl-3,6-bis[4-(propan-2-yloxy)phenyl]imidazo[1,2-a]pyridine], the inhibition at 5 µM by setting is: under setting [1], below 50%; under setting [2], below 50%.

On to `Cc1c(-c2ccc(OC(C)C)cc2)ccc2ncc(-c3ccc(OC(C)C)cc3)n12` [Example C51, 5-methyl-3,6-bis[4-(propan-2-yloxy)phenyl]imidazo[1,2-a]pyridine], for which the inhibition at 5 µM runs as follows: under setting [1], below 50%; under setting [2], below 50%.

Consider `CC(C)Oc1ccc(-c2ccc3ncc(-c4ccc(OC(C)C)nc4F)n3c2)cc1` [Example C74, 3-(2-fluoro-6-isopropoxypyridin-3-yl)-6-(4-isopropoxyphenyl)imidazo[1,2-a]pyridine], for which the inhibition at 5 µM is, setting by setting: under setting [1], below 50%; under setting [2], 50 to 90%.

With `CC(C)Oc1ccc(-c2ccc3ncc(-c4cnc(OC(C)C)nc4)n3c2)cc1` [Example C75, 6-(4-isopropoxyphenyl)-3-(2-isopropoxypyrimidin-5-yl)imidazo[1,2-a]pyridine], the inhibition at 5 µM runs as follows: under setting [1], below 50%; under setting [2], 50 to 90%.

Turning to `CC(C)Oc1ccc(-c2ccc3ncc(-c4ccnc(OC(C)C)c4)n3c2)cc1` [Example C76, 6-(4-isopropoxyphenyl)-3-(2-isopropoxypyridin-4-yl)imidazo[1,2-a]pyridine], the inhibition at 5 µM reads like this: under setting [1], below 50%; under setting [2], above 90%.

With `CC(C)Oc1ccc(-c2ccc3ncc(-c4cncc(OC(C)C)c4)n3c2)cc1` [Example C77, 6-(4-isopropoxyphenyl)-3-(5-isopropoxypyridin-3-yl)imidazo[1,2-a]pyridine], the inhibition at 5 µM by setting is: under setting [1], below 50%; under setting [2], 50 to 90%.

As to `Cc1cc2ncc(-c3ccc(OC(C)(C)C)cc3)n2cc1-c1ccc(OC(C)C)nc1` [Example C78, 3-(4-(tert-butoxy)phenyl)-6-(6-isopropoxypyridin-3-yl)-7-methylimidazo[1,2-a]pyridine], the inhibition at 5 µM runs as follows: under setting [1], below 50%; under setting [2], above 90%.

As for `Cc1cc2ncc(-c3ccc(OC(C)(C)C)cc3)n2cc1-c1ccc(OC(C)C)c(F)c1` [Example C79, 3-(4-(tert-butoxy)phenyl)-6-(3-fluoro-4-isopropoxyphenyl)-7-methylimidazo[1,2-a]pyridine], the inhibition at 5 µM under setting [1] was below 50% and the inhibition at 5 µM under setting [2] was 50 to 90%.

Turning to `Cc1cc2ncc(-c3ccc(OC(C)C)cc3)n2cc1-c1ccc(OC(C)C)c(F)c1` [Example C80, 6-(3-fluoro-4-isopropoxyphenyl)-3-(4-isopropoxyphenyl)-7-methylimidazo[1,2-a]pyridine], the inhibition at 5 µM is, setting by setting: under setting [1], below 50%; under setting [2], below 50%.

Regarding `CC(C)Oc1ccc(-c2ccc3ncc(-c4ccc(OC(C)(C)C)cc4)n3c2)cc1F` [Example C81, 3-(4-(tert-butoxy)phenyl)-6-(3-fluoro-4-isopropoxyphenyl)imidazo[1,2-a] pyridine], the inhibition at 5 µM reads like this: under setting [1], below 50%; under setting [2], above 90%.

In the case of `CC(C)(C)Oc1ccc(-c2ccc3ncc(-c4ccc(OC(C)(C)C)cc4)n3c2)cc1` [Example C82, 3,6-bis(4-(tert-butoxy)phenyl)imidazo[1,2-a]pyridine], the inhibition at 5 µM under setting [1] was below 50% and the inhibition at 5 µM under setting [2] was above 90%.

Regarding `CC(C)Oc1ccc(-c2ccc3ncc(-c4ccc(OC(C)(C)C)cc4)n3c2)cn1` [Example C83, 3-(4-(tert-butoxy)phenyl)-6-(6-isopropoxypyridin-3-yl)imidazo[1,2-a]pyridine], the inhibition at 5 µM runs as follows: under setting [1], below 50%; under setting [2], 50 to 90%.

For `Cc1cc2ncc(-c3ccc(OC(C)(C)C)nc3)n2cc1-c1ccc(OC(C)C)cc1` [Example C84, 3-(6-(tert-butoxy)pyridin-3-yl)-6-(4-isopropoxyphenyl)-7-methylimidazo[1,2-a]pyridine], the inhibition at 5 µM under setting [1] is below 50% and the inhibition at 5 µM under setting [2] was 50 to 90%.

Regarding `Cc1cc2ncc(-c3ccc(OC(C)(C)C)nc3)n2cc1-c1ccc(OC(C)C)c(F)c1` [Example C85, 3-(6-(tert-butoxy)pyridin-3-yl)-6-(3-fluoro-4-isopropoxyphenyl)-7-methylimidazo[1,2-a]pyridine], the inhibition at 5 µM is below 50% under setting [1] and 50 to 90% under setting [2].

In the case of `CC(C)(C)Oc1ccc(-c2cnc3ccc(-c4cnc(OCC(F)(F)F)c(F)c4)cn23)cc1` [Example C86, 3-(4-(tert-butoxy)phenyl)-6-(5-fluoro-6-(2,2,2-trifluoroethoxy)pyridin-3-yl)imidazo[1,2-a]pyridine], the inhibition at 5 µM is below 50% under setting [1] and above 90% under setting [2].

As to `CC(C)Oc1ccc(-c2ccc3ncc(-c4ccc(Oc5ccccc5)nc4)n3c2)cc1` [Example C88, 6-(4-isopropoxyphenyl)-3-(6-phenoxypyridin-3-yl)imidazo[1,2-a]pyridine], the inhibition at 5 µM by setting is: under setting [1], below 50%; under setting [2], above 90%.

`CC(C)Oc1ccc(-c2cn3c(-c4ccc(OC(C)(C)C)cc4)cnc3cc2Cl)cc1` [Example C91, 3-(4-(tert-butoxy)phenyl)-7-chloro-6-(4-isopropoxyphenyl)imidazo[1,2-a]pyridine]: the inhibition at 2.5 µM reads like this: (pulse 1 (tonic), read-out: percent inhibition hNav1.6, Pulse 1 (2.5 uM)) below 50%; (pulse 2 (state-dependent), read-out: percent inhibition hNav1.6, Pulse 2 (2.5 uM)) below 50%.

Regarding `CC(C)Oc1ccc(-c2ccc3ncc(-c4ccc(OC(C)C)cc4)n3n2)cc1` [Example D10, 3,6-bis[4-(propan-2-yloxy)phenyl]imidazo[1,2-b]pyridazine], the inhibition at 5 µM is, setting by setting: under setting [1], below 50%; under setting [2], above 90%.

Take `Cc1cc2ncc(-c3ccc(OC(C)(C)C)cc3)n2nc1-c1ccc(OC(C)C)cc1` [Example D23, 3-(4-(tert-butoxy)phenyl)-6-(4-isopropoxyphenyl)-7-methylimidazo[1,2-b]pyridazine]: the inhibition at 5 µM is below 50% under setting [1] and 50 to 90% under setting [2].
